“Also recorded” adds a separate entry of the source.
What was measured:
BCR-ABL+ FL5.12 cells [1] = experiment: Viability by propidium iodide exclusion (flow cytometer); type: cell-based; conditions: for viability (cell death): 22 hours, FIG. 12
Experimental: BCR-ABL^+ FL5.12 cells were cultured in cytokine-free medium containing either 0.2 mM glucose (“low glucose”; -Glucose) or 10 mM glucose (“high glucose”, +Glucose) for 48 hours. The mean viability and standard deviation were determined by propidium iodide exclusion in a FACSAria flow cytometer (BD). Cells were washed three times in PBS and resuspended at a concentration of 2×10^5 per mL in media supplemented with 2 μg/mL of propidium iodide (Molecular Probes) prior to analysis. For the viability analysis of BCL-ABL^+ primary bone marrow cells, viability was measured after withdrawal from cytokines for five (5) days in high glucose or low glucose media. Methods used for culturing cells and measuring viability are described above and below.
Fatty acid oxidation inhibition via ST247, an inverse agonist that inhibits PPARδ activity, was examined. BCR-ABL-expressing FL5.12 cells were pretreated with vehicle control or 20 nM rapamycin overnight. Cells were cultured for 22 hours in complete medium lacking IL-3 and glucose, supplemented with the indicated treatments (vehicle, 0.5 μM ST247, 1 μM ST247, or 5 μM ST247). Viability was measured in three technical replicates by propidium iodide (PI) exclusion using a flow cytometer. […] The effect was dose dependent, with lesser concentrations resulting in little effect in rapamycin-treated cells.
In order to investigate the metabolic switch as glycolysis declines, BCR-ABL-expressing FL5.12 cells were pretreated with vehicle control or 20 nM rapamycin overnight. Cells were then cultured in complete medium lacking IL-3 with 100 μM glucose (a limiting concentration) for 46 hours, supplemented with either vehicle control or 5 μM ST247. Viability was measured in three technical replicates by PI exclusion in a flow cytometer.
BCR-ABL-expressing FL5.12 cells were pretreated with vehicle control or 20 nM rapamycin overnight. Cells were then cultured in complete medium lacking IL-3 with 50 μM glucose for 48 hours, supplemented with the indicated treatments (vehicle, 1 μM GW6471, 10 μM GW7647, or 5 μM ST247). Viability was measured in three technical replicates by PI exclusion in a flow cytometer.

Akt = Akt phosphorylation immunoblot in BCR-ABL+ FL5.12 cells; type: cell-based, murine; conditions: rebound after S6K1 knockdown; FIG. 5A
Experimental: Although Akt activation has been previously associated with glucose-dependent survival (see FIG. 4A), rebound activation of Akt was tested for association with increased survival in BCR-ABL^+ cells cultured under low glucose conditions. […] Inactivation of mTORC1 and S6K1 can trigger increases in the activity of Akt and other upstream kinases, due to knockdown or loss of feedback regulation.
Rapamycin treatment can induce rebound Akt activation in short-term cultures, but long term treatment can suppress Akt activation by the upstream kinase mTORC2. See, e.g., Sarbassov, et al., (2006) Mol Cell 22:159-68.

BCR-ABL+ KBM7 cells = experiment: Fatty acid oxidation, 3H release from 3H-palmitate; type: cell-based, human; conditions: etomoxir and/or rapamycin; FIG. 7C
Experimental: (§1) The rate of ^3H release from ^3H-palmitate was used to measure FAO. The ^3H-palmitate was adopted from Djouadi, et al., (2003) Mol Genet Metab 78:112-8. Between approximately 0.5×10^6 and approximately 1.0×10^6 cells were washed with PBS, then cultured with approximately 400 μL of (9,10-^3H) palmitate:albumin for approximately 4 hours at approximately 37 degrees C. After incubation, approximately 10% TCA was added to each tube and centrifuged at approximately 3300 rpm for approximately 10 min at approximately 4 degrees C. before being mixed with 6N NaOH and applied to ion-exchange columns. Each column was washed with approximately 1 mL of water and the eluates were counted using a scintillation counter.

BCR-ABL+ K562 cells [2] = experiment: Fatty acid oxidation, 3H release from 3H-palmitate; type: cell-based, human; conditions: etomoxir and/or rapamycin; FIG. 7B
Experimental: as §1

BCR-ABL+ K562 cells [3] = experiment: Viability by propidium iodide exclusion; type: cell-based, human; conditions: full glucose; FIG. 10; not as strong as S6K1 knockdown with etomoxir
BCR-ABL+ FL5.12 cells [4] = experiment: Fatty acid oxidation, 3H release from 3H-palmitate; type: cell-based, murine; conditions: etomoxir, upon S6K1 inactivation; FIG. 7A
Experimental: as §1

S6K1 = experiment: Ribosomal protein S6 phosphorylation as readout of S6K1 activity; type: cell-based; conditions: imatinib 1.5 μM
Experimental: In particular, vector control and BCR-ABL^+ cells were cultured for three (3) hours in the absence of growth factor, then restimulated for thirty (30) minutes for analysis of S6K1 phosphorylation at T389 and the phosphorylation of ribosomal protein S6 at serines 235/236.
Small ribosomal protein S6 (pS^6) phosphorylation was measured.

## NC(=O)c1ncn([C@@H]2O[C@H](CO)[C@@H](O)[C@H]2O)c1N [AICAR, 5-aminoimidazole-4-carboxamide 1-β-D-ribofuranoside]
BCR-ABL+ FL5.12 cells [1]; AICAR, low glucose, level similar to S6K1 knockdown, FIG. 8B
  glucose-independent survival: triggered glucose-independent survival

## Cn1c(=O)n(-c2ccc(C(C)(C)C#N)cc2)c2c3cc(-c4cnc5ccccc5c4)ccc3ncc21 [BEZ235]
BCR-ABL+ FL5.12 cells [1]; S6K1 inactivation (knockdown) plus BEZ235, low glucose, FIG. 5B
  glucose-independent survival: did not prevent glucose-independent survival
Akt
  Akt activation (phosphorylation at serine 473): prevented the increase in Akt activation

## CCC(=O)NC[C@H](Cc1ccc(OCCc2nc(-c3ccccc3)oc2C)cc1)N/C(C)=C\C(=O)c1ccc(C(F)(F)F)cc1 [GW6471, N-((2S)-2-(((1Z)-1-Methyl-3-oxo-3-(4-(trifluoromethyl)phenyl)prop-1-enyl)amino)-3-(4-(2-(5-methyl-2-phenyl-1,3-oxazol-4-yl)ethoxy)phenyl)propyl)propanamide]
BCR-ABL+ FL5.12 cells [1]; 1 μM GW6471, 20 nM rapamycin pretreated, 50 μM glucose, 48 hours, FIG. 14
  viability (restoring apoptosis): somewhat effective in restoring apoptosis

## CC(C)(Sc1ccc(CCN(CCCCC2CCCCC2)C(=O)NC2CCCCC2)cc1)C(=O)O [GW7647]
BCR-ABL+ FL5.12 cells [1]; 10 μM GW7647, vehicle-control treated cells, 50 μM glucose, 48 hours, FIG. 14
  viability: undesired increase in viability

## CCCCCCNc1ccc(NS(=O)(=O)c2ccsc2C(=O)OC)c(OC)c1 [ST247]
BCR-ABL+ FL5.12 cells [1]; 5 μM ST247, 20 nM rapamycin pretreated overnight, no IL-3, no glucose
  viability (cell death): triggered substantial cell death
BCR-ABL+ FL5.12 cells [1]; 5 μM ST247, 20 nM rapamycin pretreated, 50 μM glucose, 48 hours, FIG. 14
  viability (restoring apoptosis): restoring apoptosis
BCR-ABL+ FL5.12 cells [1]; 5 μM ST247, 20 nM rapamycin pretreated, 100 μM glucose, 46 hours, FIG. 13
  viability (survival advantage): counteracted the survival advantage induced by rapamycin
BCR-ABL+ FL5.12 cells [1]; lesser concentrations of ST247 (0.5 μM, 1 μM), rapamycin-treated, no glucose
  viability (cell death): little effect

## CCOC(=O)[C@@]1(CCCCCCOc2ccc(Cl)cc2)CO1 [etomoxir]
BCR-ABL+ FL5.12 cells [1]; 200 μM etomoxir plus S6K1 knockdown, full glucose, approximately 48 hours, FIG. 9A
  apoptosis, combination with S6K1 knockdown: induced significant apoptosis
BCR-ABL+ FL5.12 cells [1]; 200 μM etomoxir, full glucose, approximately 48 hours, FIG. 9A
  cytotoxicity as a single agent: mild cytotoxic effect
BCR-ABL+ FL5.12 cells [1]; etomoxir about 200 μM to about 300 μM, full glucose, FIG. 9B
  cell death in response to etomoxir, dose curve with S6K1 knockdown: enhanced cell death
BCR-ABL+ FL5.12 cells [1]; low glucose, etomoxir added, FIG. 8B
  cell survival mediated by AICAR: prevented cell survival
BCR-ABL+ FL5.12 cells [1]; low glucose, presence of etomoxir, FIG. 8A, 8B
  survival of S6K1 knockdown cells: prevented the survival; also recorded: prevented cell survival
BCR-ABL+ KBM7 cells
  3H release from 3H-palmitate (FAO): reduced ^3H release
BCR-ABL+ K562 cells [2]
  3H release from 3H-palmitate (FAO): reduced ^3H release
BCR-ABL+ K562 cells [3]
  cytotoxicity of etomoxir in the presence of rapamycin: enhanced cytotoxicity
BCR-ABL+ FL5.12 cells [4]
  3H release from 3H-palmitate (FAO): reduced ^3H release

## Cc1ccc(NC(=O)c2ccc(CN3CCN(C)CC3)cc2)cc1Nc1nccc(-c2cccnc2)n1 [imatinib]
S6K1
  S6K1 activity (phosphorylation of pS6): reduced S6K1 activity

From patent publication US10835519B2, “Targeting metabolic adaptive responses to chemotherapy” (University of Cincinnati, priority 2012, dated 2020)
